{"source": "patent US5290576A", "about": "“Tert-butyloxycarbonyl-L-tyrosyl-peptidoglycan monomer and ^125 I-labeled derivative thereof, their preparation and use” (Pliva Farmaceutska, priority 1990, dated 1994)", "key": {"[1]": {"test_system": "antibody-forming cells (plaque-forming cells, PFC) in the spleen of mice immunized with sheep erythrocytes (SRBC)", "experiment": "Immunostimulating activity: plaque-forming cells in spleen of mice immunized with sheep erythrocytes (Jerne's technique)", "format": "in vivo", "settings": "for PFC, % (of Hanks' control): 200 μg i.v. on day +1, PFC on day +4, Hanks' control = 100; for PFC, mean (X) / PFC, range of individual values: 200 μg i.v. on day +1 after SRBC i.p., PFC in spleen on day +4", "protocol": "The immunostimulating activity of Boc-Tyr-PGM was tested in mice immunized with sheep erythrocytes (sheep red blood cells, SRBC).\nMice (CBA or AKR), five per group, were immunized i.p. with sheep erythrocytes (1×10^8 SRBC) in Hanks' solution. One day later (on day +1), the control group of mice receiving i.v. Hanks' solution, whereas the test group of mice was given i.v. 200 μg of Boc-Tyr-PGM in Hanks' solution. As positive control, a group of mice was used, to which 200 μg of peptidoglycan monomer (PGM) in Hanks' solution was administered i.v. Four days later (on day +4), the number of antibody-forming cells (plaque-forming cells, PFC) was determined in the spleen by Jerne's technique (Jerne, N. K., Nordin, A. A., and Henry, C. (1963), The agar plaque tecnique for recognizing antibody producing cells, in: \"Cell Bound Antibodies\", p. 109, Wistar Institute Press, Philadelphia)."}, "melanoma B-16": {"test_system": "melanoma B-16", "experiment": "Antitumor (antimetastatic) activity: lung metastases in mice inoculated with melanoma B-16", "format": "in vivo", "settings": "for Inhibition % / Metastases %: counted on day 23; for Metastases %: Hanks' control = 100; for Number of metastases, mean (X): C57BL/6 mice, lung metastases counted on day 23", "protocol": "The antitumor activity of Boc-Tyr-PGM was investigated in mice, inoculated with melanoma B-16.\nMice (C5 7 BL/6, male, 4 months old), five per group, were given i.v. each 1×10^5 cells of B-16 melanoma on day 0.\nOne group of mice was chosen as control and was not treated further in any manner. The mice in experimental groups were given i.v. each 1 mg of Boc-Tyr-PGM, according to the following protocol:\n3rd group--days 3 and 7 (total 2 mg of Boc-Tyr-PGM)\nThree mice groups, which received PGM (PLIVA) i.v. according to the same protocol, were chosen as the positive control.\nMacroscopically detectable lung metastases were counted on day 23."}, "[2]": {"settings": "1 mg i.v. on days 3 and 7 (total 2 mg)"}}}
{"substance": "tert-Butyloxycarbonyl-L-tyrosyl-peptidoglycan monomer [Boc-Tyr-PGM]", "values": [{"measurement": "PFC, % (of Hanks' control)", "setting": "[1]; AKR mice", "result": 150, "unit": "%"}, {"measurement": "PFC, mean (X)", "setting": "[1]; AKR mice", "result": "55,974"}, {"measurement": "PFC, range of individual values", "setting": "[1]; AKR mice", "result": "31,730-68,670"}, {"measurement": "PFC, % (of Hanks' control)", "setting": "[1]; CBA mice", "result": 157, "unit": "%"}, {"measurement": "PFC, mean (X)", "setting": "[1]; CBA mice", "result": "295,866"}, {"measurement": "PFC, range of individual values", "setting": "[1]; CBA mice", "result": "257,600-304,266"}, {"measurement": "increased number of PFC in comparison with the control group", "setting": "[1]; both mice strains (CBA, AKR), 200 μg i.v.", "result": "approximately 50%"}, {"measurement": "effectiveness compared with the positive control peptidoglycan monomer", "setting": "[1]; both tests (CBA, AKR)", "result": "comparable with the effect of the positive control"}, {"measurement": "Inhibition %", "setting": "melanoma B-16; 1 mg i.v. on day 3", "result": 38.7, "unit": "%"}, {"measurement": "Metastases %", "setting": "melanoma B-16; 1 mg i.v. on day 3", "result": 61.3, "unit": "%"}, {"measurement": "Inhibition %", "setting": "melanoma B-16; 1 mg i.v. on day 7", "result": 41.9, "unit": "%"}, {"measurement": "Metastases %", "setting": "melanoma B-16; 1 mg i.v. on day 7", "result": 58.1, "unit": "%"}, {"measurement": "Inhibition %", "setting": "melanoma B-16; [2]", "result": 43.6, "unit": "%"}, {"measurement": "Metastases %", "setting": "melanoma B-16; [2]", "result": 56.4, "unit": "%"}, {"measurement": "Number of metastases, mean (X)", "setting": "melanoma B-16; 1 mg i.v. on day 3", "result": "7.6 ± 1.9"}, {"measurement": "Number of metastases, mean (X)", "setting": "melanoma B-16; 1 mg i.v. on day 7", "result": "7.2 ± 4.0"}, {"measurement": "Number of metastases, mean (X)", "setting": "melanoma B-16; [2]", "result": "7.0 ± 2.7"}, {"measurement": "inhibition rate of metastases, all treated mice groups", "setting": "melanoma B-16; all treatment protocols (day 3, day 7, days 3 and 7)", "result": "37.8%-43.6"}, {"measurement": "difference in inhibition rate between treatment periods and total doses", "setting": "melanoma B-16; day 3 or 7, 1 mg on day 3 or total 2 mg on days 3 and 7", "result": "No significant difference in the inhibition rate"}, {"measurement": "antimetastatic effect compared with PGM (PLIVA) positive control", "setting": "melanoma B-16; mouse, in vivo", "result": "comparable to the effect of PGM (PLIVA)"}]}
{"substance": "GlcNAc-β-(1→4)MurNAc-L-Ala-D-iGln-[(L)-meso-A2 pm-(D)-amide-(L)-D-Ala-D-Ala] [PGM, reference compound]", "values": [{"measurement": "PFC, % (of Hanks' control)", "setting": "[1]; AKR mice", "result": 130, "unit": "%"}, {"measurement": "PFC, mean (X)", "setting": "[1]; AKR mice", "result": "48,668"}, {"measurement": "PFC, range of individual values", "setting": "[1]; AKR mice", "result": "27,200-61,070"}, {"measurement": "PFC, % (of Hanks' control)", "setting": "[1]; CBA mice", "result": 166, "unit": "%"}, {"measurement": "PFC, mean (X)", "setting": "[1]; CBA mice", "result": "313,413"}, {"measurement": "PFC, range of individual values", "setting": "[1]; CBA mice", "result": "198,800-449,866"}, {"measurement": "Inhibition %", "setting": "melanoma B-16; 1 mg i.v. on day 3", "result": 50.0, "unit": "%"}, {"measurement": "Metastases %", "setting": "melanoma B-16; 1 mg i.v. on day 3", "result": 50.0, "unit": "%"}, {"measurement": "Inhibition %", "setting": "melanoma B-16; 1 mg i.v. on day 7", "result": 66.5, "unit": "%"}, {"measurement": "Metastases %", "setting": "melanoma B-16; 1 mg i.v. on day 7", "result": 43.5, "unit": "%"}, {"measurement": "Inhibition %", "setting": "melanoma B-16; [2]", "result": 67.3, "unit": "%"}, {"measurement": "Metastases %", "setting": "melanoma B-16; [2]", "result": 42.7, "unit": "%"}, {"measurement": "Number of metastases, mean (X)", "setting": "melanoma B-16; 1 mg i.v. on day 3", "result": "6.2 ± 4.4"}, {"measurement": "Number of metastases, mean (X)", "setting": "melanoma B-16; 1 mg i.v. on day 7", "result": "5.4 ± 1.7"}, {"measurement": "Number of metastases, mean (X)", "setting": "melanoma B-16; [2]", "result": "5.3 ± 1.7"}]}
